Measured values from US20110251160A1 (priority 2008, published 2011).
Like-named read-outs stand apart in the source and are kept apart here.

Columns and labels:
[1] = tested on: patients with atrial fibrillation at risk of stroke
Source text: Median follow-up was 2.0 years and the primary outcome was stroke or systemic embolism.
Patients were recruited from 951 clinical centers in 44 countries. In brief, patients were eligible if they had atrial fibrillation documented on electrocardiogram at screening or within 6 months; and at least one of the following: prior stroke or transient ischemic attack; left ventricular ejection fraction less than 40%; New York Heart Association heart failure symptoms of Class 2 or greater within 6 months; age at least 75 years; or age at least 65 years with diabetes mellitus, hypertension or coronary artery disease.
The time in therapeutic range was calculated by the method of Rosendaal (Rosendaal F R, et al., A method to determine the optimal intensity of oral anticoagulant therapy, Thromb Haemost, 1993, 69:236-239), excluding INRs from the first week and after discontinuations. […] Concomitant use of aspirin (less than 100 mg/day) or other antiplatelet agents was allowed.
Liver function testing was performed monthly during the first year of follow-up.
The primary study outcome was stroke or systemic embolism. The primary safety outcome was major hemorrhage. Secondary outcomes were stroke, systemic embolism and death. Other outcomes were myocardial infarction, pulmonary embolism, transient ischemic attacks, and hospitalizations. The primary net benefit-risk outcome was the composite of stroke, systemic embolism, pulmonary embolism, myocardial infarction, death or major hemorrhage. Stroke was defined as sudden onset of focal neurological deficit consistent with the territory of a major cerebral artery and categorized as ischemic, hemorrhagic or unspecified. Hemorrhagic transformation of ischemic stroke was not considered as hemorrhagic stroke. Intracranial hemorrhage included hemorrhagic stroke and sub-dural or sub-arachnoid hemorrhage. Systemic embolism was an acute vascular occlusion of an extremity or organ documented by imaging, surgery or autopsy. Major bleeding was defined as a reduction in hemoglobin level of at least […] or transfusion of at least 2 units of blood or symptomatic bleeding in a critical area or organ. Life-threatening bleeding was a subset of major bleeding that included fatal bleeding, symptomatic intracranial bleeding, bleeding with hemoglobin decrease of more than […] or requiring transfusion of more than 4 units of blood or requiring inotropic agents or necessitating surgery. All other bleeding was considered minor.
All primary and secondary outcome events were blindly and doubly adjudicated. An international team of adjudicators reviewed documents in local languages after blinding; or documents were translated by a independent group and blinded centrally. All transient ischemic attacks were reviewed to ensure that strokes had not been missed. To detect possible unreported events, symptom questionnaires were regularly administered to patients, and adverse events and hospitalization reports were scrutinized for unreported primary or secondary outcomes.
If maximum of the two p-values was greater than 0.025, the minimum of the two p-values must be less than 0.0125, one-sided, to claim statistical significance. All analyses were based on intention-to-treat.

AF patients [2] = conditions: SPORTIF V (2005), cited from earlier work
AF patients [3] = conditions: SPORTIF III (2003), cited from earlier work
[4] = tested on: patients who have nonvalvular atrial fibrillation; conditions: VKAs, such as warfarin; cited from earlier work
AF patients [5] = conditions: ACTIVE W (2006), warfarin arm; cited from earlier work
[6] = ximelagatran 36 mg b.i.d. vs. warfarin

Compound: CC(=O)CC(c1ccccc1)c1c(O)c2ccccc2oc1=O (racemic) [Warfarin, 3-(α-acetonylbenzyl)4-hydroxycoumarin, reference compound]
- ALT or AST > 3xULN ([1]; Warfarin arm): (2.1) %
- ALT or AST > 3xULN with concurrent bilirubin > 2xULN ([1]; Warfarin arm): (0.4) %
- Adverse Event: Arthralgia ([1]; Warfarin arm): (5.5) %
- Adverse Event: Atrial fibrillation ([1]; Warfarin arm): (5.4) %
- Adverse Event: Back pain ([1]; Warfarin arm): (5.5) %
- Adverse Event: Chest pain ([1]; Warfarin arm): (5.7) %
- Adverse Event: Cough ([1]; Warfarin arm): (5.8) %
- Adverse Event: Diarrhea ([1]; Warfarin arm): (5.5) %
- Adverse Event: Dizziness ([1]; Warfarin arm): (9.3) %
- Adverse Event: Dyspepsia ([1]; Warfarin arm): (1.4) %
- Adverse Event: Dyspnoea ([1]; Warfarin arm): (9.2) %
- Adverse Event: Fatigue ([1]; Warfarin arm): (5.9) %
- Adverse Event: Nasopharyngitis ([1]; Warfarin arm): (5.5) %
- Adverse Event: Peripheral edema ([1]; Warfarin arm): (7.6) %
- Adverse Event: Upper respiratory tract infection ([1]; Warfarin arm): (5.0) %
- Adverse Event: Urinary tract infection ([1]; Warfarin arm): (5.3) %
- All Death, Rate ([1]; Warfarin arm): 4.13 /100 Person Years
- Any Major Bleeding, Rate ([1]; Warfarin arm): 3.46 /100 Person Years
- Extracranial Bleeding, Rate ([1]; Warfarin arm): 2.73 /100 Person Years
- First Hospitalization, Rate ([1]; Warfarin arm): 27.5 /100 Person Years
- Intracranial Bleeding, Rate ([1]; Warfarin arm): 0.72 /100 Person Years
- Life threatening bleeding, Rate ([1]; Warfarin arm): 1.80 /100 Person Years
- Major gastro-intestinal Bleeding, Rate ([1]; Warfarin arm): 1.03 /100 Person Years
- Major or Minor Bleeding, Rate ([1]; Warfarin arm): 23.92 /100 Person Years
- Minor Bleeding, Rate ([1]; Warfarin arm): 21.03 /100 Person Years
- Myocardial Infarction, Rate ([1]; Warfarin arm): 0.54 /100 Person Years
- Non-disabling Stroke Modified Rankin 0-2, Rate ([1]; Warfarin arm): 0.58 /100 Person Years
- Other Major bleeding, Rate ([1]; Warfarin arm): 1.80 /100 Person Years
- Pulmonary embolism, Rate ([1]; Warfarin arm): 0.09 /100 Person Years
- Reason for discontinuation: Gastrointestinal bleeding ([1]; Warfarin arm): (0.9) %
- Reason for discontinuation: Gastrointestinal disorders ([1]; Warfarin arm): (0.8) %
- Reason for discontinuation: Outcome event ([1]; Warfarin arm): (2.2) %
- Reason for discontinuation: Patient decision ([1]; Warfarin arm): (6.2) %
- Reason for discontinuation: SAE ([1]; Warfarin arm): (1.6) %
- Stroke or systemic embolism, Rate ([1]; Warfarin arm): 1.70 /100 Person Years
- Stroke, Hemorrhagic, Rate ([1]; Warfarin arm): 0.38 /100 Person Years
- Stroke, Rate ([1]; Warfarin arm): 1.58 /100 Person Years
- Study Drug Discontinuation At one year ([1]; Warfarin arm): (10) %
- Study Drug Discontinuation At two years ([1]; Warfarin arm): (19) %
- Vascular Death, Rate ([1]; Warfarin arm): 2.69 /100 Person Years
- hepatobiliary disorders (AE) ([1]; Warfarin arm): (2.2) %
- hepatobiliary disorders (SAE) ([1]; Warfarin arm): (0.4) %
- Study Drug Discontinuation At one year ([1]; Warfarin arm, listed as warfarin): 10%
- Stroke, systemic embolism, pulmonary embolism, myocardial infarction death or major bleed, Rate ([1]; net benefit, Warfarin arm): 7.99 /100 Person Years
- Mortality rate, death from any cause ([1]; warfarin): 4.13 % per year
- Rate of discontinuation at 2.5 years ([1]; warfarin): 19%
- Rate of hemorrhagic stroke ([1]; warfarin): 0.38 % per year
- Rate of major hemorrhage / major bleeding ([1]; warfarin): 3.46 % per year
- Rate of myocardial infarction ([1]; warfarin): 0.54 % per year
- Rate of net benefit-risk outcome (major vascular events, major bleeding and death) ([1]; warfarin): 7.99 % per year
- Rate of the primary outcome, stroke or systemic embolism ([1]; warfarin): 1.70 % per year
- Stroke and systemic embolism (per 100 patient years) (AF patients [2]; [6]): 1.2%
- Myocardial Infarction (AF patients [2]; ximelagatran vs. warfarin): 1.4%
- Stroke and systemic embolism (per 100 patient years) (AF patients [3]; [6]): 2.3%
- Myocardial Infarction (AF patients [3]; ximelagatran vs. warfarin): 0.6%
- Reduction of the risk of stroke compared to control [4]: 64%
- Myocardial Infarction (AF patients [5]): 0.6%
- Stroke and systemic embolism (per 100 patient years) (AF patients [5]): 1.5%
